Data set [1] is described as follows: Volatile organic content (VOC) of the neat amine, modified EPA Method 24. Format: physicochemical. The conditions noted are these: for Volatility by the modified EPA Test Method 24 / VOC: neat amine; for VOC: 1 h at 105-110° C., percent weight loss. As to the method:
Volatile Organic Content (VOC). VOC is measured following EPA Method 24. The amines are weighed in a pan and kept in an oven for 1 h at 105-110° C. The percent weight loss is reported as the VOC, corrected for the water content in the sample which can be measured by Karl Fisher Titration.

A short description of data set [2]: pKa of the neat neutralizer by titration with hydrochloric acid. Type of data set: physicochemical. The conditions noted are these: neat amine; for pKa: titration; for pK1: first pKa by titration; for pK2: second pKa by titration. Here is the method: pKa. pKa is measured by titration with a hydrochloric acid titrant solution, using an automated titrator that monitors pH with a combination electrode. The titrator plots pH vs. volume of titrant added, and first determines the titration endpoint(s) of each amine as the volume of titrant added at the inflection point(s) of the curve. The titrator reports the amine pKa value as the pH value at which one-half of the endpoint titrant volume has been delivered, or in the case of multiple endpoints, multiple pKa values are determined using the midpoints between titration endpoints. The inventive amines tested in this example each have two pKa values, due to the two different amine groups in each compound's respective molecular structure.

For the compound `CC(C)(N)CNC(CO)(CO)CO` [TA-AMP, 2-(2-Amino-2-methylpropylamino)-2-(hydroxymethyl)propane-1,3-diol], in data set [1], the “Volatility by the modified EPA Test Method 24” value amounted to 3.9% and the VOC was 3.9%.
The pKa is the negative logarithm of the acid dissociation constant. With `CC(C)(N)CO` [AMP, 2-Amino-2-methyl-1-propanol, reference compound], the pKa in data set [2] came out at 9.7. In data set [1], the VOC contribution amounted to 100% and the VOC worked out at 100%.
Consider `NC1(CNC(CO)(CO)CO)CCCCC1` [TA-ACyHM, 2-((1-aminocyclohexyl)methylamino)-2-(hydroxymethyl)propane-1,3-diol], for which, in data set [2], the pK1 is given as 9.7 and the pK2 is recorded as 4.5. Further, in data set [2] (listed as TA-AcyHM), the pK1 entry was “pK1 9.7” and the pK2 entry was “pK2 4.5”. In addition, in data set [1], the VOC contribution entry was “essentially zero VOC contribution”, the “Volatility by the modified EPA Test Method 24” value is reported as 3.8% and the VOC was found to be 3.8%.
Take `CC(C)(N)CNC(CO)(CO)CO` [2-(2-amino-2-methylpropylamino)-2-(hydroxymethyl)propane-1,3-diol]: in data set [1], the VOC contribution was determined as 3.9%.
As to `CCCCN(CCO)CCO` [NBDA, N-Butyl-diethanolamine, reference compound], the pKa in data set [2] worked out at 9. The same compound came in with a VOC in data set [1] of 21%.
Regarding `CCC(N)(CO)CO` [AEPD, 2-Amino-2-ethyl-1,3-propane-diol, reference compound], in data set [2], the pKa was 8.8. Also, the VOC in data set [1] turned out to be 19%.

Values taken from patent US7939589B2, “Polyhydroxy-diamines as low odor, low VOC multi-functional additives for paints and coatings” (Angus Chemical Company, priority 2009, dated 2011).
